Results published in patent US5719145A, “Amidine derivatives and platelet aggregation inhibitor containing the same” (Mitsui Toatsu Chemicals, Inc., priority 1996, dated 1998).
Where a name gives a salt, the structure may show the parent alone.

Tests used:
[1] = system: guinea pig platelets (platelet-rich plasma); test: In vitro inhibition of platelet aggregation in guinea pig (ADP-induced, PRP); format: cell-based; settings: Cavia porcellus, ADP final concentration 5 μM, read-out: Platelet aggregation inhibitory activity in guinea pig, IC50
Protocol: In vitro experiment of platelet aggregation inhibition
1. Inhibition of platelet aggregation in Guinea pig
Blood of male guinea pig was collected with an injection syringe which contains 3.8 % sodium citrate as an anticoagulant in a ratio of 1 volume to 9 volumes of the blood. Successively, the collected blood mixture was subjected to centrifugation at 120×g for 15 minutes at room temperature to obtain platelet-rich plasma (PRP). An aliquot of PRP was further subjected to centrifugation at 1,200×g for 15 minutes to obtain platelet-poor plasma (PPP). Numbers of the platelet in PRP were measured with an automatic platelet counter: Sysmex PL-100 (manufactured by Toa Iyodenshi Co.) and PRP was diluted with PPP so as to adjust a platelet concentration to be about 300,000 particles/ μl. Platelet aggregation was measured by the following procedure with a 6 channel aggregometer: HEMA TRACER 1 (manufactured by NKK Co.).
(§1) After incubation of 240 μl of PRP at 37° C. for 2 minutes, 30 μl of the solvent of specimen as a control or of the specimen in various concentrations was added to PRP. Further 2 minutes later, 30 μl of adenosine diphosphate (final concentration: 5μM) was added to induce platelet aggregation. An inhibition percentage was obtained by comparing the maximum aggregation of the specimen drug group with that of control. […]

[2] = system: human platelets (platelet-rich plasma); test: In vitro inhibition of platelet aggregation in human (ADP-induced, PRP); format: cell-based; settings: ADP final concentration 5 μM, read-out: Platelet aggregation inhibitory activity in human, IC50
Protocol: 2. Inhibition of platelet aggregation in human
Blood was collected from healthy human volunteers with an injection syringe and mixed one volume of 3.8% of sodium citrate as an anticoagulant to 9 volumes of the blood. Successively, the obtained blood mixture was subjected to centrifugation at 120×g for 15 minutes at room temperature to obtain platelet-rich plasma (PRP). An aliquot of PRP was further subjected to centrifugation at 1,200×g for 20 minutes to obtain platelet-poor plasma (PPP). Numbers of the platelet were measured with an automatic platelet counter: Sysmex PL-100 (manufactured by Toa Iyodenshi Co.) and PRP was diluted with PPP so as to adjust a platelet concentration to be about 250,000 particles/μl. Platelet aggregation was measured by the following procedure with a 6 channel aggregometer: HEMA TRACER 1 (manufactured by NKK Co.)
as §1, with “or” for “or of”, “5 μM)” for “5μM)”

[3] = target: T1, human fibrinogen receptor GP IIb/IIIa (Homo sapiens, UniProt P05106+P08514); test: Binding inhibition of biotinylated fibrinogen to GP IIb/IIIa; settings: purified human GP IIb/IIIa, read-out: Inhibition of GPIIb/IIIa . Fibrinogen Binding, IC50
T1 construct: Concentrated and lyophilized human platelet (20 vial) (Organon Teknika Co.) was lysed; tissue Organon Teknika Co; host or cells: human platelets (lyophilized), lysed in Triton X-100
T1 sequence (P08514 32-887 limits assumed): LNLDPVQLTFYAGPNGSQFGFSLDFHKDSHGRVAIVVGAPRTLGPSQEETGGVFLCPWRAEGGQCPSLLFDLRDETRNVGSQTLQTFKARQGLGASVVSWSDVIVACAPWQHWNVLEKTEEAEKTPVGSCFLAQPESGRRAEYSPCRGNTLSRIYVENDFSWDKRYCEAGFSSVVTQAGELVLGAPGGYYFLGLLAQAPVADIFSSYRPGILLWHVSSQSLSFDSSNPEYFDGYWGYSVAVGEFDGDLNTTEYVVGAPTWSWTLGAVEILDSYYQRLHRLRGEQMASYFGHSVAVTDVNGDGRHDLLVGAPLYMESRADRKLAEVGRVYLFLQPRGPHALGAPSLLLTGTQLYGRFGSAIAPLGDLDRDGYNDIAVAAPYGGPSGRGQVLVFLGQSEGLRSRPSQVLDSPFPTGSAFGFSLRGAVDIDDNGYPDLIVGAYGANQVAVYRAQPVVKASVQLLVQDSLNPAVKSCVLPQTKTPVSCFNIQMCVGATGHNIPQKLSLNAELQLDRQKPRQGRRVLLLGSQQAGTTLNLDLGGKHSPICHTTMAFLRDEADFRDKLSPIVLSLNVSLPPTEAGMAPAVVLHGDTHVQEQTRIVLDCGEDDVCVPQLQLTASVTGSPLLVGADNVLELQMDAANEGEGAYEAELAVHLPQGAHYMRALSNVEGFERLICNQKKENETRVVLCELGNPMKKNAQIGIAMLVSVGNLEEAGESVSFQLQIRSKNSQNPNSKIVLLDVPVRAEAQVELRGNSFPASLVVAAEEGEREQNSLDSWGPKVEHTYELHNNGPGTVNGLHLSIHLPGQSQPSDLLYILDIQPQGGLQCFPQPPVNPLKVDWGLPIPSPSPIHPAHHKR
T1 sequence (P08514 891-1039 partner limits assumed): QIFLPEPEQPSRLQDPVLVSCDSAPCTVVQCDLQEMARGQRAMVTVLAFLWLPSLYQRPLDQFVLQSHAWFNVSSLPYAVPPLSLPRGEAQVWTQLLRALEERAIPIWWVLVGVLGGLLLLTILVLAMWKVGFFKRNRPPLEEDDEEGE
T1 sequence (P05106 27-788): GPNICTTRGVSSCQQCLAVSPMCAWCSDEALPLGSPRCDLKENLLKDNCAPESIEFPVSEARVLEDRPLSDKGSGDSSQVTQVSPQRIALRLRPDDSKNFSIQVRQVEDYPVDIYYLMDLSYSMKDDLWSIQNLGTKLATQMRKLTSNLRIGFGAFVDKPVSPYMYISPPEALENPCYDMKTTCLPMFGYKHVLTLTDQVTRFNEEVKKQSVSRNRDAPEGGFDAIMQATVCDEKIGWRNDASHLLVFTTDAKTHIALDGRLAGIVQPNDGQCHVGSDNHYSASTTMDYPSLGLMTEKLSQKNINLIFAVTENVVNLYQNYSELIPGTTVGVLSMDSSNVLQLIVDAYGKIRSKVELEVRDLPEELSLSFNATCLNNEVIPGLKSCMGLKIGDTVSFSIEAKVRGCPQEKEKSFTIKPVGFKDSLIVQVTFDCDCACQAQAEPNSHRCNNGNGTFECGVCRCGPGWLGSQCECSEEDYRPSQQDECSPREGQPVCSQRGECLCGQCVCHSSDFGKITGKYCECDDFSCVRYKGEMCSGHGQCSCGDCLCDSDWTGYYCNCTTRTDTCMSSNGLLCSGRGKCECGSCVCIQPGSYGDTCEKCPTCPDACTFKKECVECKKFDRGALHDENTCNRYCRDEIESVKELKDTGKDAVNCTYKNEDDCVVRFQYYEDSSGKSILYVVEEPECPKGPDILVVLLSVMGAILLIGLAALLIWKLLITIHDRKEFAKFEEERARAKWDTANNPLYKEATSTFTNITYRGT
Protocol: Experiment for binding inhibition between GP IIb/IIIa and fibrinogen
1. Purification of human fibrinogen receptor GP IIb/IIIa
Concentrated and lyophilized human platelet (20 vial) (Organon Teknika Co.) was lysed in an antienzymic solution (80 ml) (1% Triton X-100, 10 mM Tris-HCl, 150 mM NaCl, 1 mM CaCl2, 10 μM leupeptin, 1 mM phenylmethane sulfonyl fluoride, pH 7.4), allowed to incubate for an hour at 4° C., and centrifuged at 30,000×g for 15 minutes to recover the supernatant solution containing 150 mg of protein. The GP IIb/IIIa was purified according to the method of Phillips et al. [Methods in Enzymology Vol. 215, (J. J. Hawigar, Eds.), 244-263, Acedemic Press Inc., San Diego].
2. Preparation of biotinylated fibrinogen
Human fibrinogen Grade L (KABI Co.) was purified by using Shepharose CL-6B and Lysine-Sepharose. Thus purified human fibrinogen (2.3 mg/ml) was dialyzed for 3 hours with 0.1M aqueous sodium bicarbonate solution at room temperature and successively diluted to 1 mg/ml. To the solution (4.5 ml) obtained, NHC-LC-Biotin (2 mg) (Pierce Co.) was added and reacted for 1 hour at room temperature to biotinylate fibrinogen. The reaction mixture was dialyzed at 4° C. for 24 hours with TBS (20 mM Tris-HCl, 150 mM NaCl, 1 mM CaCl2, 1 mM MgCl2, pH 7.4) to obtain biotinylated fibrinogen.
3. Binding inhibition of biotinylated fibrinogen to GP IIb/IIIa
Specimen drugs were dissolved and diluted with TBS containing 1% BSA. To each solution, an equal volume of biotinylated fibrinogen (2 μg/ml) dissolved in TBS containing 1% BSA, was added. The inhibition percentage of specimen drugs were measured by the method of Mori et al. [Jpn. J. Thromb. Hemost., 2, 323-399 (1991) with small modification].
Purified GP IIb/IIIa was diluted to 1.5 μg/ml in TBS containing 0.0005% of Triton X-100. The GP IIb/IIIa solution was added to a 96 well microplate (E.I.A/R.I.A. Plate, Costar Co.) in a volume of 100 μl for each well, and incubated at 4° C. for 24 hours to immobilize GP IIb/IIIa. The microplate was washed twice with a washing solution (TBS containing 0.01% of Tween 20). Thereafter TBS containing 3.5% of BSA was added to each well in a volume of 200 μl and blocking was carried out for about an hour at room temperature. The microplate was further washed twice with the washing solution, and successively a mixture of the specimen drug and the biotinylated fibrinogen was added in a volume of 100 μl/well and incubated for 24 hours at room temperature. The microplate was thereafter washed five times, and peroxidase-labeled streptoavidin (a kit of Amersham Co.) which was previously diluted 3000 times with TBS was added in a volume of 100 μl/well and incubated for about 30 minutes at room temperature. After washing the microplate 5 times, a 0.05M phosphate-citrate buffer solution (pH5) containing o-phenylenediamine(0.4 mg/ml) (manufactured by Sigma Co.) and H2 O2 (0.012%) was added in a volume of 200 μl/well to develop color for 20-40 minutes. The reaction was stopped by addition of 0.3M sulfuric acid in a volume of 50 μl/well and absorbance at 490 nm was measured with Immunoreader NJ-200 (manufactured by Inter Med Co.). […]

[4] = system: guinea pig platelets (platelet-rich plasma); test: Inhibition against platelet aggregation ability after oral administration in guinea pig; format: in vivo; settings: Cavia porcellus, 1 h, oral administration: 37 μmol/kg, blood collected after an hour, ADP 5 μM, read-out: Aggregation inhibiting rate (%)
Protocol: Experiment for inhibition against platelet aggregation ability after oral administration The specimen drug was dissolved or suspended at a concentration of 18.5 μmol/ml in a physiological saline containing 0.5% of Tween 80. […] A physiological saline containing 0.5% of Tween 80 was similarly administered as a control. […] The blood mixture was centrifuged at 800 r.p.m. for 20 minutes at room temperature to obtain PRP in the upper layer. The lower layer was further centrifuged at 3000 r.p.m. for 15 minutes to obtain PPP in upper layer. […] Platelet aggregation ability was measured according to the method for measuring in vitro platelet aggregation. […] HEMA TRACER 1 (manufactured by NKK Co.). After incubation of PRP at 37° C. for 2 minutes, a physiological saline (30 μl) was added. […] An inhibiting ratio was obtained by comparing the maximum aggregation of the specimen drug group with that of control.

Row | Compound | IC50 [1] [nM] | IC50 [2] [nM] | IC50 [3] [nM] | inhibition at 37 µmol/kg [4] [%]
1 | C#CCNC(=N)c1ccc(C(=O)Nc2ccc3c(c2)CC(CC(=O)O)CC3)cc1 (single isomer, unassigned; (-)) [Example 46, (-)-7-[[4-(N^2-propargylamidino)benzoyl]amino]-1,2,3,4-tetrahydronaphthalene-2-acetic acid hydrochloride] | 150 | 29 | 0.11 | –
2 | N=C(c1ccc(C(=O)Nc2ccc3c(c2)CC(CC(=O)O)CC3)cc1)N1CCOCC1 (single isomer, unassigned; (-)) [Example 48, (-)-7-[[4-(morpholinoiminomethyl)benzoyl]amino]-1,2,3,4-tetrahydronaphthalene-2-acetic acid hydrochloride] | 69 | 33 | 0.07 | –
3 | N=C(c1ccc(C(=O)Nc2ccc3c(c2)CC(CC(=O)O)CO3)cc1)N1CCOCC1 (stereo not drawn) [Example 5, 6-[[4-(morpholinoiminomethyl)benzoyl]amino]chroman-3-acetic acid hydrochloride] | – | 66 | – | –
4 | N=C(c1ccc(C(=O)Nc2ccc3c(c2)OCC(CC(=O)O)C3)cc1)N1CCOCC1 (stereo not drawn) [Example 9, 7-[[4-(morpholinoiminomethyl)benzoyl]amino]chroman-3-acetic acid hydrochloride] | – | 171 | – | –
5 | CN1CCN(C(=N)c2ccc(C(=O)Nc3ccc4c(c3)CC(CC(=O)O)CC4)cc2)CC1 (stereo not drawn) [Example 15, dihydrochloride] | – | 110 | – | –
6 | N=C(c1ccc(C(=O)Nc2ccc3c(c2)CC(CC(=O)O)CC3)cc1)N1CCCCC1 (stereo not drawn) [Example 18, 7-[[4-(piperidinoiminomethyl)benzoyl]amino]-1,2,3,4-tetrahydronaphthalene-2-acetic acid hydrochloride] | – | 140 | 0.26 | –
7 | CCOC(=O)CC1CCc2ccc(NC(=O)c3ccc(C(=N)N4CCCC4)cc3)cc2C1 (stereo not drawn) [Example 21, ethyl 7-[[4-(pyrrolidinoiminomethyl)benzoyl]amino]-1,2,3,4-tetrahydronaphthalene-2-acetate hydrochloride] | 94 | – | – | > 90
8 | CCOC(=O)CC1CCc2ccc(NC(=O)c3ccc(C(=N)N4CCCCCC4)cc3)cc2C1 (stereo not drawn) [Example 22, ethyl 7-[[4-(homopiperidinoiminomethyl)benzoyl]amino]-1,2,3,4-tetrahydronaphthalene-2-acetate hydrochloride] | 250 | – | – | > 90
9 | C#CCNC(=N)c1ccc(C(=O)Nc2ccc3c(c2)CC(CC(=O)OCC)CO3)cc1 (stereo not drawn) [Example 26, ethyl 6-[[4-(N^2-propargylamidino)benzoyl]amino]chroman-3-acetate hydrochloride] | 190 | – | – | > 90
10 | C#CCNC(=N)c1ccc(C(=O)Nc2ccc3c(c2)CC(CC(=O)O)CO3)cc1 (stereo not drawn) [Example 27, 6-[[4-(N^2-propargylamidino)benzoyl]amino]chroman-3-acetic acid hydrochloride] | – | 78 | – | –
11 | NC(=NCc1ccco1)c1ccc(C(=O)Nc2ccc3c(c2)CC(CC(=O)O)CC3)cc1 (stereo not drawn) [Example 30, 7-[[4-[N^2-(2-furfuryl)amidino]benzoyl]amino]-1,2,3,4-tetrahydronaphthalene-2-aceticacid hydrochloride] | 180 | – | 0.14 | –
12 | CCOC(=O)CC1COc2ccc(NC(=O)c3ccc(C(=N)NCc4ccco4)cc3)cc2C1 (stereo not drawn) [Example 31, ethyl 6-[[4-[N^2-(2-furfuryl)amidino]benzoyl]amino]chroman-3-acetate hydrochloride] | 140 | – | – | > 90
13 | N=C(NCc1ccco1)c1ccc(C(=O)Nc2ccc3c(c2)CN(CC(=O)O)CC3)cc1 [Example 33, 7-[[4-[N^2-(2-furfuryl)amidino]benzoyl]amino]-1,2,3,4-tetrahydroisoquinoline-2-acetic acid dihydrochloride] | – | 160 | – | –
14 | C#CCN(C)C(=N)c1ccc(C(=O)Nc2ccc3c(c2)CC(CC(=O)O)CC3)cc1 (stereo not drawn) [Example 35, 7-[[4-(N^2-methyl-N^2-propargylamidino)benzoyl]amino]-1,2,3,4-tetrahydronaphthalene-2-acetic acid hydrochloride] | – | 160 | – | –
15 | N=C(NCc1cccs1)c1ccc(C(=O)Nc2ccc3c(c2)CC(CC(=O)O)CC3)cc1 (stereo not drawn) [Example 37, 7-[[4-[N^2-(2-thenyl)amidino]benzoyl]amino]-1,2,3,4-tetrahydronaphthalene-2-acetic acid hydrochloride] | 220 | – | 0.04 | –
16 | CCOC(=O)CC1CCc2ccc(NC(=O)c3ccc(C(=N)NCc4cccnc4)cc3)cc2C1 (stereo not drawn) [Example 40, ethyl 7-[[4-[N^2-(3-picolyl)amidino]benzoyl]amino]-1,2,3,4-tetrahydronaphthalene-2-acetatedihydrochloride] | 110 | – | – | > 90
17 | CCCN=C(N)c1ccc(C(=O)Nc2ccc3c(c2)CC(CC(=O)OCC)CC3)cc1 (stereo not drawn) [Reference Example 9, ethyl 7-[[4-[N^2-(n-propyl)amidino]benzoyl]amino]-1,2,3,4-tetrahydronaphthalene-2-acetate hydrochloride, reference compound] | 520 | – | – | 3
